ChEMBL document CHEMBL1129570, “2-(Hydroxyalkyl)estradiols: synthesis and biological evaluation” (J Med Chem, 1996)

How the values were obtained:
Estrogen receptor [1] = molecular target: T1, Estrogen receptor (Homo sapiens, UniProt Q92731+P03372); assay: Affinity estrogen receptor of MCF-7 human mammary cancer cells; type: cell-based; details: mcf7
Estrogen receptor [2] = molecular target: T1, Estrogen receptor; assay: (§1) Induction of pS2 mRNA expression in human MCF-7 mammary carcinoma cells; type: functional, cell-based; details: mcf7
Estrogen receptor [3] = molecular target: T1, Estrogen receptor; assay: as §1; type: functional, cell-based; details: mcf7; remark: listed apart in the source
Estrogen receptor [4] = molecular target: T1, Estrogen receptor; assay: Affinity for estrogen receptor; type: protein assay

| EC50 (Estrogen receptor [1]) [nM] | EC50 (Estrogen receptor [2]) [nM] | EC50 (Estrogen receptor [3]) [nM] | EC50 (Estrogen receptor [4]) [nM] | SMILES |
| --- | --- | --- | --- | --- |
| 4890 | 272 | – | – | C[C@]12CC[C@@H]3c4cc(CCO)c(O)cc4CC[C@H]3[C@@H]1CC[C@@H]2O |
| 342 | 10.3 | 2.79 | 146 | C[C@]12CC[C@@H]3c4cc(CO)c(O)cc4CC[C@H]3[C@@H]1CC[C@@H]2O |

The next lines start with the compound.

| SMILES | EC50 (Estrogen receptor [1]) [nM] | EC50 (Estrogen receptor [2]) [nM] | EC50 (Estrogen receptor [3]) [nM] | EC50 (Estrogen receptor [4]) [nM] |
| --- | --- | --- | --- | --- |
| C[C@]12CC[C@@H]3c4cc(O)c(O)cc4CC[C@H]3[C@@H]1CC[C@@H]2O | 1660 | 504 | – | – |
| C[C@]12CC[C@@H]3c4cc(CCCO)c(O)cc4CC[C@H]3[C@@H]1CC[C@@H]2O | 5220 | 495 | 0.004 | – |
| C[C@]12CC[C@@H]3c4cc(C=O)c(O)cc4CC[C@H]3[C@@H]1CC[C@@H]2O | 782 | – | – | – |
